Experimental data: US9090658B2, “Base-substituted benzylamine analogs for use as coagulation factor Xa inhibitors, the production and use thereof” (The Medicines Company (Leipzig) GmbH, priority 2003, dated 2015)
Where a name gives a salt, the structure may show the parent alone.

Key:
F Xa = settings: prior art, literature values; cited from earlier work
factor Xa = biological target: T1, factor Xa (Bos taurus, UniProt P00743); test: Determination of the inhibitory constants for factor Xa (chromogenic substrate Moc-D-Nle-Gly-Arg-pNA, Dixon method); format: biochemical, bovine; settings: for Ki: bovine factor Xa, 25° C., pH 8.0, average of at least three determinations
T1 construct: purchased Diagnostic Reagents Ltd, Thame, GB
Description: Determination of the inhibitory Effect
To determine the inhibitory effect, 200 μl of this buffer (0.05 M 0.154 M NaCl, 5% Ethanol, pH 8.0; contains the inhibitor), 25 μl of substrate (Moc-D-Nle-Gly-Arg-pNA in H2O; Pentapharm Ltd., Basle, Switzerland) and 50 μl of factor Xa (bovine, Diagnostic Reagents Ltd, thame, GB) were incubated at 25° C. After 3 min, the reaction was stopped By adding 25 μl of acetic acid (50%), and the absorption at 405 nm was determined using a Microplate Reader (MR 5000, Dynatech, Denkendorf, Germany). The Ki values were Founder by the Dixon method (boichem. J. 55, 170-171, 1953) by linear regression using a Computer program. The Ki values are the average of at least three determinations. The Thrombin inhibitions was determined in analogy to a method described earlier (Stürzebecher et al., J. Med. Chem. 40, 3091-3099, 1997).

Thrombin = Thrombin (UniProt P00735); test: Determination of the inhibitory constants for thrombin (method of Stürzebecher et al. 1997); format: biochemical
Excerpt: The Ki values are the average of at least three determinations.

T1 sequence (P00743 234-492 limits assumed): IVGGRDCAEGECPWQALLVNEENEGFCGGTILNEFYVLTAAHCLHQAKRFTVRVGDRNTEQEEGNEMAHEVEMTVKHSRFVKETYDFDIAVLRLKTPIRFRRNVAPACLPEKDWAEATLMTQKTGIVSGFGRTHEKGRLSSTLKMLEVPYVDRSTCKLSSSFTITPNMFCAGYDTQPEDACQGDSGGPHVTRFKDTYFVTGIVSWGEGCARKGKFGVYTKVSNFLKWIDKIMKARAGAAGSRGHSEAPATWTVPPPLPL
T1 sequence (P00743 41-180 partner limits assumed): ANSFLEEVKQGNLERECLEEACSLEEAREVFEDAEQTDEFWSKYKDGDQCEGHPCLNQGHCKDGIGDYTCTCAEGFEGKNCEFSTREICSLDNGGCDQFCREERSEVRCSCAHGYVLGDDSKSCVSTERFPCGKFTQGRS

N=C(N)c1ccc(C=C2CCCCC(=Cc3ccc(C(=N)N)cc3)C2=O)cc1 [BABCH]
Ki (F Xa): 0.013 µM

N=C(N)c1ccc(CNC(=O)CNC(=O)[C@H](CCc2ccccc2)NS(=O)(=O)Cc2ccccc2)cc1 [Compound 12]
selectivity ratio SR (SR = Ki thrombin/Ki factor Xa) (factor Xa): 31
Ki (factor Xa): 0.36 µM
Ki (Thrombin): 11 µM

CC(C)(C)OC(=O)CC[C@H](NC(=O)[C@@H](CCc1ccncc1)NS(=O)(=O)Cc1ccc([N+](=O)[O-])cc1)C(=O)NCc1ccc(C(=N)N)cc1 [Compound 51]
selectivity ratio SR (SR = Ki thrombin/Ki factor Xa) (factor Xa): 87
Ki (factor Xa): 0.016 µM
Ki (Thrombin): 1.4 µM

CS(=O)(=O)N[C@H](CCc1ccccc1)C(=O)NCC(=O)NCc1ccc(C(=N)N)cc1 [Compound 13]
selectivity ratio SR (SR = Ki thrombin/Ki factor Xa) (factor Xa): 1.2
Ki (factor Xa): 1.1 µM
Ki (Thrombin): 1.3 µM

N=C(N)c1ccc(CNC(=O)CNC(=O)C(CCc2ccncc2)NS(=O)(=O)Cc2ccccc2)cc1 (racemic) [Compound 1, Bzls-D,L-homoAla(4-Pyr)-Gly-4Amba×2 TFA]
selectivity ratio SR (SR = Ki thrombin/Ki factor Xa) (factor Xa): 690
Ki (factor Xa): 0.0029 µM
Ki (Thrombin): 2 µM

N=C(N)c1ccc(CNC(=O)CNC(=O)[C@@H](CCc2ccncc2)NS(=O)(=O)Cc2ccccc2)cc1 [Compound 22]
selectivity ratio SR (SR = Ki thrombin/Ki factor Xa) (factor Xa): 259
Ki (factor Xa): 0.0027 µM
Ki (Thrombin): 0.7 µM

N=C(N)c1ccc(CNC(=O)[C@H](CCC(=O)O)NC(=O)[C@@H](CCc2ccccc2)NS(=O)(=O)Cc2cccc([N+](=O)[O-])c2)cc1 [Compound 56]
selectivity ratio SR (SR = Ki thrombin/Ki factor Xa) (factor Xa): 156
Ki (factor Xa): 0.083 µM
Ki (Thrombin): 13 µM

N=C(N)c1ccc(CNC(=O)CNC(=O)C(CCc2cccnc2)NS(=O)(=O)Cc2ccccc2)cc1 (stereo not shown) [Compound 24]
selectivity ratio SR (SR = Ki thrombin/Ki factor Xa) (factor Xa): 400
Ki (factor Xa): 0.005 µM
Ki (Thrombin): 2 µM

N=C(N)c1ccc(CNC(=O)CNC(=O)[C@H](NS(=O)(=O)Cc2ccccc2)C2Cc3ccccc3C2)cc1 [Compound 21]
selectivity ratio SR (SR = Ki thrombin/Ki factor Xa) (factor Xa): 5.2
Ki (factor Xa): 0.029 µM
Ki (Thrombin): 0.15 µM

N=C(N)c1ccc(CNC(=O)CNC(=O)[C@@H](CCc2ccc(O)cc2)NS(=O)(=O)Cc2ccc([N+](=O)[O-])cc2)cc1 [Compound 36]
selectivity ratio SR (SR = Ki thrombin/Ki factor Xa) (factor Xa): 165
Ki (factor Xa): 0.0052 µM
Ki (Thrombin): 0.86 µM

N=C(N)c1ccc(CNC(=O)[C@H](CCC(=O)O)NC(=O)[C@@H](CCc2ccncc2)NS(=O)(=O)Cc2ccc(N)cc2)cc1 [Compound 52]
selectivity ratio SR (SR = Ki thrombin/Ki factor Xa) (factor Xa): 5250
Ki (factor Xa): 0.016 µM
Ki (Thrombin): 84 µM

N=C(N)c1ccc(CNC(=O)[C@H](CCC(=O)NCc2ccccc2)NC(=O)[C@@H](CCc2ccncc2)NS(=O)(=O)Cc2ccccc2)cc1 [Compound 61]
selectivity ratio SR (SR = Ki thrombin/Ki factor Xa) (factor Xa): 250
Ki (factor Xa): 0.0068 µM
Ki (Thrombin): 1.7 µM

COC(=O)Cc1ccc(CS(=O)(=O)N[C@H](CCc2ccccc2)C(=O)NCC(=O)NCc2ccc(C(=N)N)cc2)cc1 [Compound 16]
selectivity ratio SR (SR = Ki thrombin/Ki factor Xa) (factor Xa): 47
Ki (factor Xa): 0.038 µM
Ki (Thrombin): 1.8 µM

N=C(N)c1ccc(CNC(=O)[C@H](CCC(=O)O)NC(=O)[C@@H](CCc2ccccc2)NS(=O)(=O)Cc2ccccc2)cc1 [Compound 50]
selectivity ratio SR (SR = Ki thrombin/Ki factor Xa) (factor Xa): 1153
Ki (factor Xa): 0.013 µM
Ki (Thrombin): 15 µM

N=C(N)c1ccc(CNC(=O)[C@H](CCC(=O)OCc2ccccc2)NC(=O)C(CCc2ccncc2)NS(=O)(=O)Cc2ccccc2)cc1 (stereo partly shown) [Compound 39]
selectivity ratio SR (SR = Ki thrombin/Ki factor Xa) (factor Xa): 26
Ki (factor Xa): 0.0064 µM
Ki (Thrombin): 0.17 µM

N=C(N)c1ccc(CNC(=O)CNC(=O)[C@@H](CCc2ccc(O)cc2)NS(=O)(=O)Cc2ccccc2)cc1 [Compound 5, Bzls-d-homoTyr-Gly-4Amba×TFA]
selectivity ratio SR (SR = Ki thrombin/Ki factor Xa) (factor Xa): 556
Ki (factor Xa): 0.0027 µM
Ki (Thrombin): 1.5 µM

CCOC(=O)CC[C@H](NC(=O)[C@@H](CCc1ccc(O)cc1)NS(=O)(=O)Cc1ccccc1)C(=O)NCc1ccc(C(=N)N)cc1 [Compound 35]
selectivity ratio SR (SR = Ki thrombin/Ki factor Xa) (factor Xa): 200
Ki (factor Xa): 0.005 µM
Ki (Thrombin): 1 µM

N=C(N)c1ccc(CNC(=O)CNC(=O)[C@@H](Cc2ccccc2)NS(=O)(=O)Cc2ccccc2)cc1 [Compound 10]
selectivity ratio SR (SR = Ki thrombin/Ki factor Xa) (factor Xa): 2.6
Ki (factor Xa): 0.026 µM
Ki (Thrombin): 0.068 µM

N=C(N)c1ccc(CNC(=O)CNC(=O)[C@@H](CCc2ccccc2)NS(=O)(=O)Cc2ccc(CC(=O)O)cc2)cc1 [Compound 17]
selectivity ratio SR (SR = Ki thrombin/Ki factor Xa) (factor Xa): 259
Ki (factor Xa): 0.054 µM
Ki (Thrombin): 14 µM

N=C(N)c1ccc(CNC(=O)CNC(=O)[C@@H](CCc2ccccc2)NS(=O)(=O)Cc2cccnc2)cc1 [Compound 9, 3-PMs-dhomoPhe-Gly-4Amba×2 TFA]
selectivity ratio SR (SR = Ki thrombin/Ki factor Xa) (factor Xa): 95
Ki (factor Xa): 0.062 µM
Ki (Thrombin): 5.9 µM

N=C(N)c1ccc(CNC(=O)[C@H](CO)NC(=O)C(CCc2ccncc2)NS(=O)(=O)Cc2ccncc2)cc1 (stereo partly drawn) [Compound 4, 4-PMs-D,L-homoAla(4-Pyr)-Ser-4Amba×3 acetate]
selectivity ratio SR (SR = Ki thrombin/Ki factor Xa) (factor Xa): 65
Ki (factor Xa): 0.097 µM
Ki (Thrombin): 6.3 µM

N=C(N)c1ccc(CNC(=O)CNC(=O)C(CCc2cc[n+]([O-])cc2)NS(=O)(=O)Cc2ccccc2)cc1 (stereo not shown) [Compound 60]
selectivity ratio SR (SR = Ki thrombin/Ki factor Xa) (factor Xa): 730
Ki (factor Xa): 0.0048 µM
Ki (Thrombin): 3.5 µM

COC(=O)Cc1ccc(CS(=O)(=O)NC(CCc2ccncc2)C(=O)NCC(=O)NCc2ccc(C(=N)N)cc2)cc1 (stereo not shown) [Compound 44]
selectivity ratio SR (SR = Ki thrombin/Ki factor Xa) (factor Xa): 463
Ki (factor Xa): 0.0082 µM
Ki (Thrombin): 3.8 µM

N=C(N)c1ccc(CNC(=O)[C@H](CO)NC(=O)[C@H](CCc2ccncc2)NS(=O)(=O)Cc2ccccc2)cc1 [Compound 3b, Bzls-D,L-homoAla(4-Pyr)-Ser-4Amba×2 TFA]
selectivity ratio SR (SR = Ki thrombin/Ki factor Xa) (factor Xa): 48.4
Ki (factor Xa): 0.095 µM
Ki (Thrombin): 4.6 µM

N=C(N)c1ccc(CNC(=O)CNC(=O)[C@@H](CCc2ccccc2)NS(=O)(=O)Cc2ccc(N)cc2)cc1 [Compound 29]
selectivity ratio SR (SR = Ki thrombin/Ki factor Xa) (factor Xa): 100
Ki (factor Xa): 0.0026 µM
Ki (Thrombin): 0.26 µM

CC(C)(C)OC(=O)CC[C@H](NC(=O)[C@@H](CCc1ccc(O)cc1)NS(=O)(=O)Cc1ccc([N+](=O)[O-])cc1)C(=O)NCc1ccc(C(=N)N)cc1 [Compound 54]
selectivity ratio SR (SR = Ki thrombin/Ki factor Xa) (factor Xa): 18
Ki (factor Xa): 0.039 µM
Ki (Thrombin): 0.69 µM

N=C(N)c1ccc(CNC(=O)CNC(=O)C(CCc2ccncc2)NS(=O)(=O)Cc2ccncc2)cc1 (racemic) [Compound 2, 4-PMs-D,L-homoAla(4-Pyr)-Gly-4Amba×3 Acetate]
selectivity ratio SR (SR = Ki thrombin/Ki factor Xa) (factor Xa): 246
Ki (factor Xa): 0.013 µM
Ki (Thrombin): 3.2 µM

N=C(N)c1ccc(CNC(=O)CNC(=O)[C@@H](CCCc2ccccc2)NS(=O)(=O)Cc2ccccc2)cc1 [Compound 55]
selectivity ratio SR (SR = Ki thrombin/Ki factor Xa) (factor Xa): 3
Ki (factor Xa): 0.067 µM
Ki (Thrombin): 0.21 µM

CC(C)(C)OC(=O)CN[C@H](CCc1ccccc1)C(=O)NCC(=O)NCc1ccc(C(=N)N)cc1 [Compound 63]
selectivity ratio SR (SR = Ki thrombin/Ki factor Xa) (factor Xa): 2.4
Ki (factor Xa): 0.62 µM
Ki (Thrombin): 1.5 µM

N=C(N)c1ccc(CNC(=O)CNC(=O)[C@@H](CCc2ccccc2)NS(=O)(=O)Cc2ccccc2[N+](=O)[O-])cc1 [Compound 20]
selectivity ratio SR (SR = Ki thrombin/Ki factor Xa) (factor Xa): 46
Ki (factor Xa): 0.026 µM
Ki (Thrombin): 1.2 µM
